Measured values: patent publication US5498788A, “Inclusion complexes of clavulanic acid and of potassium salts thereof with hydrophobic β-cyclodextrin derivatives a process for the preparation thereof” (LEK, tovarna farmacevtskih, priority 1992, dated 1996)

Columns and labels:
[1] = Stability test of complexed and uncomplexed potassium clavulanate in artificial gastric juice (pH 1.2, 37° C.); assay type: physicochemical
Protocol: Stability test of complexed and uncomplexed potassium clavulanate in artificial gastric juice (pH 1.2) at the temperature of 37° C.
For the test the following samples were used:
Medium: artificial gastric juice--aq. HCl/NaCl buffer, pH 1.2, according to USP XXII.
Concentration of clavulanic acid (abbr. KA) in samples: 4 mg/ml.
The samples 1 to 3 were dissolved under stirring in an artificial gastric juice (100 ml) thermostated at 37° C., at the concentration of 4 mg/ml with regard to the clavulanic acid. Subsequently, 100 μl aliquots were taken at 5 min intervals for analysis by the HPLC, until a more than 95% KA decomposition was found. The solution was stirred all the time at the temperature of 37° C. ±0.5° C.
Separately, a series of ten 10 ml aliquots of KA-TA-β-CD suspension in a buffer of a pH of 1.2 (cone. of KA=4 mg/ml), which were constantly stirred during thermostating at 37° C., was prepared. At time intervals of 5 to 10 min, the individual aliquots were filtered (membrane filter 0.4 μm) and in the clear filtrate the concentration of clavulanic acid was determined by HPLC. The KA content at times up to 90 min of thermostating was noted.
The results of measurements after 15, 30, 45, 60 and 90 min of thermostating the samples at 37° C. in a buffer at pH 1.2 are shown in following Table.

[2] = cited from earlier work
β-lactamases = details: cited from earlier work
[3] = penicillinic and cephalosporin class; cited from earlier work

Row | SMILES | remaining at 0.25 h ([1]; artificial gastric juice, 15 min thermostating, pH 1.2, 37° C., KA 4 mg/ml, read-out: KA (undecomp.) as to the initial KA conc. (100%) in samples) | remaining at 0.5 h ([1]; artificial gastric juice, 30 min thermostating, pH 1.2, 37° C., KA 4 mg/ml, read-out: KA (undecomp.) as to the initial KA conc. (100%) in samples) | remaining at 0.75 h ([1]; artificial gastric juice, 45 min thermostating, pH 1.2, 37° C., KA 4 mg/ml, read-out: KA (undecomp.) as to the initial KA conc. (100%) in samples) | time of 95% decomposition of clavulanic acid (t95%) ([1]; pH 1.2, 37° C. (FIG. 9)) | time of 95% decomposition of clavulanic acid ([1]; conditions present in gastric juice, 37° C.) | solubility in water (in words) [2] | inhibition of β-lactamases (in words) (β-lactamases) | effect in combination with β-lactam antibiotics [3]
1 | O=C(O)[C@H]1/C(=C/CO)O[C@@H]2CC(=O)N21 [KK, potassium clavulanate] | 18.1% | 1.3% | 0% | 26 min | – | – | – | –
2 | O=C(O)[C@H]1/C(=C/CO)O[C@@H]2CC(=O)N21 [clavulanic acid, (2R,5R,Z)-3-(2-hydroxyethylidene)-7-oxo-4-oxa-1-azabicyclo[3.2.0]heptane-2-carboxylic acid] | – | – | – | – | 26 min | very well soluble in water | inhibitors of β-lactamases | synergistic effect
